Regarding `CCOc1ncc(C)cc1Nc1cc2c3c(c1)[C@@H]1CNCC[C@@H]1N3CCOC2` [Example 173, (7bR,11aS)-N-(2-Ethoxy-5-methyl-3-pyridinyl)-1,2,7b,8,9,10,11,11a-octahydro-4H-[1,4]oxazepino[6,5,4-hi]pyrido[4,3b]indole-6-amine], the melting point lay in the range of 59 to 68 °C.

For `COc1ncc(C)cc1Nc1cc2c3c(c1)[C@@H]1CNCC[C@@H]1N3CCOC2` [Example 172, (7bR,11aS)-N-(2-Methoxy-5-methyl-3-pyridinyl)-1,2,7b,8,9,10,11,11a-octahydro-4H-[1,4]oxazepino[6,5,4-hi]pyrido[4,3-b]indole-6-amine], the melting point was in the range of 122 to 124 °C.

In general, melting point refers to the temperature of the solid-liquid transition.

Values taken from patent publication US6849619B2, “Substituted pyridoindoles as serotonin agonists and antagonists” (Bristol-Myers Squibb Company, priority 2000, dated 2005).
